Numbers after ± are expanded uncertainties.
Test: xn = mol fraction of the nth substance listed
Details: 101 kPa, Liquid

CC(C)(C)O [2-methylpropan-2-ol] + CCCCO
mass density (308.15 K, x2 = 0.1017): 774.752 ± 0.51 kg/m3 | viscosity (308.15 K, x2 = 0.1017): 3.438 ± 0.057 mPa·s | mass density (308.15 K, x2 = 0.2006): 778.293 ± 0.5 kg/m3 | viscosity (308.15 K, x2 = 0.2006): 3.374 ± 0.056 mPa·s | mass density (308.15 K, x2 = 0.3008): 781.316 ± 0.49 kg/m3 | viscosity (308.15 K, x2 = 0.3008): 3.302 ± 0.055 mPa·s | mass density (308.15 K, x2 = 0.4005): 784.068 ± 0.48 kg/m3 | viscosity (308.15 K, x2 = 0.4005): 3.22 ± 0.054 mPa·s | mass density (308.15 K, x2 = 0.5011): 786.651 ± 0.47 kg/m3 | viscosity (308.15 K, x2 = 0.5011): 3.125 ± 0.053 mPa·s | mass density (308.15 K, x2 = 0.6002): 789.119 ± 0.47 kg/m3 | viscosity (308.15 K, x2 = 0.6002): 3.021 ± 0.051 mPa·s | mass density (308.15 K, x2 = 0.6975): 791.52 ± 0.46 kg/m3 | viscosity (308.15 K, x2 = 0.6975): 2.912 ± 0.049 mPa·s | mass density (308.15 K, x2 = 0.7987): 793.957 ± 0.46 kg/m3 | viscosity (308.15 K, x2 = 0.7987): 2.791 ± 0.047 mPa·s | mass density (308.15 K, x2 = 0.8978): 796.247 ± 0.45 kg/m3 | viscosity (308.15 K, x2 = 0.8978): 2.667 ± 0.045 mPa·s | mass density (313.15 K, x2 = 0.1017): 769.698 ± 0.52 kg/m3 | viscosity (313.15 K, x2 = 0.1017): 2.787 ± 0.047 mPa·s | mass density (313.15 K, x2 = 0.2006): 773.439 ± 0.51 kg/m3 | viscosity (313.15 K, x2 = 0.2006): 2.763 ± 0.047 mPa·s | mass density (313.15 K, x2 = 0.3008): 776.66 ± 0.5 kg/m3 | viscosity (313.15 K, x2 = 0.3008): 2.733 ± 0.046 mPa·s | mass density (313.15 K, x2 = 0.4005): 779.566 ± 0.49 kg/m3 | viscosity (313.15 K, x2 = 0.4005): 2.693 ± 0.046 mPa·s | mass density (313.15 K, x2 = 0.5011): 782.289 ± 0.48 kg/m3 | viscosity (313.15 K, x2 = 0.5011): 2.64 ± 0.045 mPa·s | mass density (313.15 K, x2 = 0.6002): 784.884 ± 0.48 kg/m3 | viscosity (313.15 K, x2 = 0.6002): 2.577 ± 0.044 mPa·s | mass density (313.15 K, x2 = 0.6975): 787.385 ± 0.47 kg/m3 | viscosity (313.15 K, x2 = 0.6975): 2.508 ± 0.043 mPa·s | mass density (313.15 K, x2 = 0.7987): 789.899 ± 0.47 kg/m3 | viscosity (313.15 K, x2 = 0.7987): 2.429 ± 0.041 mPa·s | mass density (313.15 K, x2 = 0.8978): 792.264 ± 0.46 kg/m3 | viscosity (313.15 K, x2 = 0.8978): 2.347 ± 0.04 mPa·s | mass density (318.15 K, x2 = 0.1017): 764.541 ± 0.53 kg/m3 | viscosity (318.15 K, x2 = 0.1017): 2.299 ± 0.039 mPa·s | mass density (318.15 K, x2 = 0.2006): 768.484 ± 0.52 kg/m3 | viscosity (318.15 K, x2 = 0.2006): 2.302 ± 0.039 mPa·s | mass density (318.15 K, x2 = 0.3008): 771.902 ± 0.51 kg/m3 | viscosity (318.15 K, x2 = 0.3008): 2.298 ± 0.039 mPa·s | mass density (318.15 K, x2 = 0.4005): 774.974 ± 0.5 kg/m3 | viscosity (318.15 K, x2 = 0.4005): 2.284 ± 0.039 mPa·s | mass density (318.15 K, x2 = 0.5011): 777.844 ± 0.49 kg/m3 | viscosity (318.15 K, x2 = 0.5011): 2.258 ± 0.039 mPa·s | mass density (318.15 K, x2 = 0.6002): 780.565 ± 0.48 kg/m3 | viscosity (318.15 K, x2 = 0.6002): 2.223 ± 0.038 mPa·s | mass density (318.15 K, x2 = 0.6975): 783.18 ± 0.48 kg/m3 | viscosity (318.15 K, x2 = 0.6975): 2.182 ± 0.037 mPa·s | mass density (318.15 K, x2 = 0.7987): 785.795 ± 0.47 kg/m3 | viscosity (318.15 K, x2 = 0.7987): 2.131 ± 0.037 mPa·s | mass density (318.15 K, x2 = 0.8978): 788.241 ± 0.47 kg/m3 | viscosity (318.15 K, x2 = 0.8978): 2.076 ± 0.036 mPa·s | mass density (323.15 K, x2 = 0.1017): 759.283 ± 0.54 kg/m3 | viscosity (323.15 K, x2 = 0.1017): 1.922 ± 0.033 mPa·s | mass density (323.15 K, x2 = 0.2006): 763.421 ± 0.53 kg/m3 | viscosity (323.15 K, x2 = 0.2006): 1.942 ± 0.034 mPa·s | mass density (323.15 K, x2 = 0.3008): 767.037 ± 0.51 kg/m3 | viscosity (323.15 K, x2 = 0.3008): 1.956 ± 0.034 mPa·s | mass density (323.15 K, x2 = 0.4005): 770.272 ± 0.51 kg/m3 | viscosity (323.15 K, x2 = 0.4005): 1.957 ± 0.034 mPa·s | mass density (323.15 K, x2 = 0.5011): 773.307 ± 0.5 kg/m3 | viscosity (323.15 K, x2 = 0.5011): 1.95 ± 0.034 mPa·s | mass density (323.15 K, x2 = 0.6002): 776.162 ± 0.49 kg/m3 | viscosity (323.15 K, x2 = 0.6002): 1.934 ± 0.034 mPa·s | mass density (323.15 K, x2 = 0.6975): 778.901 ± 0.49 kg/m3 | viscosity (323.15 K, x2 = 0.6975): 1.91 ± 0.033 mPa·s | mass density (323.15 K, x2 = 0.7987): 781.617 ± 0.48 kg/m3 | viscosity (323.15 K, x2 = 0.7987): 1.877 ± 0.033 mPa·s | mass density (323.15 K, x2 = 0.8978): 784.158 ± 0.47 kg/m3 | viscosity (323.15 K, x2 = 0.8978): 1.841 ± 0.032 mPa·s | mass density (328.15 K, x2 = 0.1017): 753.923 ± 0.55 kg/m3 | viscosity (328.15 K, x2 = 0.1017): 1.635 ± 0.029 mPa·s | mass density (328.15 K, x2 = 0.2006): 758.252 ± 0.54 kg/m3 | viscosity (328.15 K, x2 = 0.2006): 1.666 ± 0.029 mPa·s | mass density (328.15 K, x2 = 0.3008): 762.068 ± 0.52 kg/m3 | viscosity (328.15 K, x2 = 0.3008): 1.69 ± 0.03 mPa·s | mass density (328.15 K, x2 = 0.4005): 765.483 ± 0.51 kg/m3 | viscosity (328.15 K, x2 = 0.4005): 1.704 ± 0.03 mPa·s | mass density (328.15 K, x2 = 0.5011): 768.677 ± 0.51 kg/m3 | viscosity (328.15 K, x2 = 0.5011): 1.709 ± 0.03 mPa·s | mass density (328.15 K, x2 = 0.6002): 771.695 ± 0.5 kg/m3 | viscosity (328.15 K, x2 = 0.6002): 1.704 ± 0.03 mPa·s | mass density (328.15 K, x2 = 0.6975): 774.542 ± 0.49 kg/m3 | viscosity (328.15 K, x2 = 0.6975): 1.692 ± 0.03 mPa·s | mass density (328.15 K, x2 = 0.7987): 777.372 ± 0.49 kg/m3 | viscosity (328.15 K, x2 = 0.7987): 1.672 ± 0.029 mPa·s | mass density (328.15 K, x2 = 0.8978): 780.002 ± 0.48 kg/m3 | viscosity (328.15 K, x2 = 0.8978): 1.65 ± 0.029 mPa·s | mass density (333.15 K, x2 = 0.1017): 748.453 ± 0.56 kg/m3 | viscosity (333.15 K, x2 = 0.1017): 1.406 ± 0.025 mPa·s | mass density (333.15 K, x2 = 0.2006): 752.974 ± 0.55 kg/m3 | viscosity (333.15 K, x2 = 0.2006): 1.439 ± 0.026 mPa·s | mass density (333.15 K, x2 = 0.3008): 756.986 ± 0.53 kg/m3 | viscosity (333.15 K, x2 = 0.3008): 1.466 ± 0.026 mPa·s | mass density (333.15 K, x2 = 0.4005): 760.579 ± 0.52 kg/m3 | viscosity (333.15 K, x2 = 0.4005): 1.486 ± 0.026 mPa·s | mass density (333.15 K, x2 = 0.5011): 763.946 ± 0.52 kg/m3 | viscosity (333.15 K, x2 = 0.5011): 1.5 ± 0.027 mPa·s | mass density (333.15 K, x2 = 0.6002): 767.111 ± 0.51 kg/m3 | viscosity (333.15 K, x2 = 0.6002): 1.504 ± 0.027 mPa·s | mass density (333.15 K, x2 = 0.6975): 770.1 ± 0.5 kg/m3 | viscosity (333.15 K, x2 = 0.6975): 1.501 ± 0.027 mPa·s | mass density (333.15 K, x2 = 0.7987): 773.05 ± 0.49 kg/m3 | viscosity (333.15 K, x2 = 0.7987): 1.492 ± 0.026 mPa·s | mass density (333.15 K, x2 = 0.8978): 775.796 ± 0.49 kg/m3 | viscosity (333.15 K, x2 = 0.8978): 1.478 ± 0.026 mPa·s | mass density (338.15 K, x2 = 0.1017): 742.882 ± 0.57 kg/m3 | viscosity (338.15 K, x2 = 0.1017): 1.221 ± 0.022 mPa·s | mass density (338.15 K, x2 = 0.2006): 747.587 ± 0.56 kg/m3 | viscosity (338.15 K, x2 = 0.2006): 1.254 ± 0.023 mPa·s | mass density (338.15 K, x2 = 0.3008): 751.795 ± 0.54 kg/m3 | viscosity (338.15 K, x2 = 0.3008): 1.282 ± 0.023 mPa·s | mass density (338.15 K, x2 = 0.4005): 755.568 ± 0.53 kg/m3 | viscosity (338.15 K, x2 = 0.4005): 1.306 ± 0.023 mPa·s | mass density (338.15 K, x2 = 0.5011): 759.113 ± 0.52 kg/m3 | viscosity (338.15 K, x2 = 0.5011): 1.324 ± 0.024 mPa·s | mass density (338.15 K, x2 = 0.6002): 762.433 ± 0.52 kg/m3 | viscosity (338.15 K, x2 = 0.6002): 1.335 ± 0.024 mPa·s | mass density (338.15 K, x2 = 0.6975): 765.569 ± 0.51 kg/m3 | viscosity (338.15 K, x2 = 0.6975): 1.339 ± 0.024 mPa·s | mass density (338.15 K, x2 = 0.7987): 768.651 ± 0.5 kg/m3 | viscosity (338.15 K, x2 = 0.7987): 1.34 ± 0.024 mPa·s | mass density (338.15 K, x2 = 0.8978): 771.52 ± 0.5 kg/m3 | viscosity (338.15 K, x2 = 0.8978): 1.335 ± 0.024 mPa·s | mass density (343.15 K, x2 = 0.1017): 737.201 ± 0.58 kg/m3 | viscosity (343.15 K, x2 = 0.1017): 1.07 ± 0.02 mPa·s | mass density (343.15 K, x2 = 0.2006): 742.083 ± 0.57 kg/m3 | viscosity (343.15 K, x2 = 0.2006): 1.103 ± 0.02 mPa·s | mass density (343.15 K, x2 = 0.3008): 746.492 ± 0.55 kg/m3 | viscosity (343.15 K, x2 = 0.3008): 1.131 ± 0.021 mPa·s | mass density (343.15 K, x2 = 0.4005): 750.446 ± 0.54 kg/m3 | viscosity (343.15 K, x2 = 0.4005): 1.156 ± 0.021 mPa·s | mass density (343.15 K, x2 = 0.5011): 754.166 ± 0.53 kg/m3 | viscosity (343.15 K, x2 = 0.5011): 1.177 ± 0.021 mPa·s | mass density (343.15 K, x2 = 0.6002): 757.655 ± 0.53 kg/m3 | viscosity (343.15 K, x2 = 0.6002): 1.191 ± 0.022 mPa·s | mass density (343.15 K, x2 = 0.6975): 760.941 ± 0.52 kg/m3 | viscosity (343.15 K, x2 = 0.6975): 1.2 ± 0.022 mPa·s | mass density (343.15 K, x2 = 0.7987): 764.169 ± 0.51 kg/m3 | viscosity (343.15 K, x2 = 0.7987): 1.207 ± 0.022 mPa·s | mass density (343.15 K, x2 = 0.8978): 767.155 ± 0.51 kg/m3 | viscosity (343.15 K, x2 = 0.8978): 1.208 ± 0.022 mPa·s

— the NIST ThermoML archive (doi:10.1021/je900722m)
